Measurements reported in patent US10092574B2, “Inhibitors of polynucleotide repeat-associated RNA foci and uses thereof” (VALORISATION-RECHERCHE, LIMITED PARTNERSHIP, priority 2013, dated 2018).

Assays:
[1] = system: CUGBP1; assay: Western blot of CUGBP1 protein levels in myoblasts; format: cell-based, human; conditions: 20 μM, 7 days (FIG. 7); for reduction of CUGBP1 levels: DM1 myoblasts
Method: Human myoblasts were obtained from the Myosix institute associated with the Association Frangaise contre les Myopathies (AFM). Five primary myoblast lines were obtained as controls, and one line from a DM1 patient with a 3.8 Kb CTG triplet amplification corresponding to approximately 1250 CTG repeats. The human myoblasts are cultivated in HAM-F10 media (SIGMA N6635) with 15% FBS, 1% chick embryo extract, and 390 ng/ml of dexamethasone. One day before adding compounds, 2×10^5 cells were plated in 100 mm plates (for CUGBP1 western blot or RT-PCR alternative splicing assay) or 2×10^4 cells/well are seeded in 12-well plates containing 12 mm round glass coverslips (for FISH to detect RNA foci). One day after plating, media is replaced with fresh media containing the compounds at the desired concentration in this manner: the media is put in a screw-cap tube and heated at 37° C. The 20 mM compound stock in 100% DMSO is pipetted directly into the media and the tube is mixed well by inversion and gentle vortexing, and immediately overlayed on the cells. Pure DMSO is used for the control cells. Final concentrations on myoblasts are never higher than 0.5%. This procedure is repeated twice during the seven days of treatment, the media is thus replaced with fresh media containing compound every 2-3 days. Cells are collected or fixed for FISH after one week.
For Western blots, CUGBP1 was detected with the 3B1-3D11 monoclonal antibody (mAb) (SIGMA C5112) and GAPDH was detected with the 6C5 mAb (Millipore MAB374). The enhanced chemiluminescence signal (ECL) was acquired and quantified with the ChemiDoc™ MP imaging system (Bio-Rad). For alternative splicing assays, total RNA was collected with Trizol™ (Invitrogen), and 1 μg was used for reverse transcription with random primers with the RevertAid™ H Minus M-MuL RT (Fermentas) according to manufacturer's instructions. For MBNL2, PCR amplification was performed with primers 5′-[…]-3′ (SEQ ID NO:1) and 5′-[…]-3′ (SEQ ID NO:2). SERCA1 was amplified with primers 5′-[…]-3′ (SEQ ID NO:3) and 5′-[…]-3′ (SEQ ID NO:4). For TNNT2 (cardiac Troponin T), PCR was carried out with primers 5′-[…]-3′ (SEQ ID NO:5) and 5′-[…]-3′ (SEQ ID NO:6). The alternative splicing of the hnRNPA2/B1 transcript was detected with the primers 5′-[…]-3′ (SEQ ID NO:7) and 5′-[…]-3′ (SEQ ID NO:8). PCR was performed with Taq using standard conditions but the number of amplification cycles was optimized to be in the quantitative range for each gene. The products of PCR amplification were resolved on 3.5% agarose gels containing Gelred™ (Biotium) and images were acquired and quantified with the ChemiDoc™ MP imaging system (Bio-Rad). […]

[2] = system: luciferase-CUG200 mRNA; assay: Dose-response of nuclear export/translation of luciferase-CUG200 reporter mRNA in C2C12 myoblast cell line; format: cell-based, murine; conditions: for EC50: Mus musculus, read-out: EC50 (luciferase from luciferase-CUG200 mRNA)
Method: C2C12 murine myoblast cells and Phoenix retrovirus packaging cells were cultivated in DMEM supplemented with 10% FBS. Phoenix cells were transfected with the desired retroviral vector by the Calcium-Phosphate method and, 48 hours after transfection, retrovirus-containing supernatant was supplemented with polybrene and deposited on cells to infect. C2C12 Tet-Off cell lines were generated by infecting cells with the retrovirus pTet-Off IN (Clontech) and selecting for Doxycycline (Dox)-regulated clones. Cell lines expressing the LacZ-5CUG, LacZ-145CUG, LUC-5CUG or LUC-200CUG transcripts were generated by infecting C2C12 Tet-Off cells with the desired reporter construct in the pRevTRE plasmid (Clontech) and selecting for stable clones with inducible expression. The 3′UTR of human DMPK containing 5 CTG repeats or 200 CTG repeats was cloned downstream of the luciferase or beta-galactosidase open reading frames. The C2C12 cell line(s) are cultivated in media containing 1 ng/ml Dox to repress transcription of the reporter constructs.
The two compounds identified by the screening assay described above, which were named compound 15 and 32, have the structure depicted in FIG. 3. Compound 15 has a para-sulfonamide structure, and compound 32 is a benzyl methylthiophene amide. […] The dose-response effect of candidate drugs 15 and 32 on the nuclear export of luciferase-CUG200 mRNA was assessed in the C2C12 myoblast cell line. The amount of CUG repeat RNA that get exported and properly translated into luciferase in response to treatment with varying concentrations of target drugs was measured in order to determine the dose-response curves.

[3] = system: Normal or DM1 myoblasts; assay: Cytotoxicity assay (Hoescht 33342 / propidium iodide, High Content Screening microscope); format: cell-based, human; conditions: for cellular toxicity: 7 days (FIG. 10)
Method: The cellular toxicity of compounds 15 and 32, and their analogs was also measured using a validated cytotoxicity assay. Normal or DM1 myoblasts were treated with 20 μM of compound or DMSO. The ratio of viable cells was measured with a High Content Screening microscope in live cells treated with Hoescht 33342 (labels all cells) and propidium iodide (labels dead cells). The total number of cells was counted and the number of dead cells was subtracted to obtain the number of viable cells, which is presented as a ratio (drug-treated versus DMSO-treated cells). The percentage of dead cells was also measured using propidium iodide.
The cellular toxicity of the compounds was also measured in a dose-response assay. In this assay, normal (M908) and patient (DM1) myoblasts were treated for 7 days with compound 32 or 196 at concentrations varying from 5 to 60 μM. Cell number and cell death was quantified by High Content Screening microscope, as specified above. […] Indeed, the ratio of viable cells at 20 μM of compound 15 is 0.22 (FIG. 10), while for compound 196, an analogue of compound 15, it is above 1 at the same concentration (FIG. 14C).

Structure (SMILES) | reduction of CUGBP1 levels [1] | change of CUGBP1 levels in WT cells ([1]; WT myoblasts) | concentration at which plateau / peak of maximal effect was reached [2] | EC50 [2] | cellular toxicity ([3]; 20 μM) | ratio of viable cells (drug-treated versus DMSO-treated) ([3]; 20 μM, 7 days (FIG. 10, FIG. 14C)) | main phenotype at higher concentrations ([3]; normal (M908) and DM1 myoblasts, 7 days, 5 to 60 μM) | cytotoxicity in dose-response assay ([3]; normal (M908) and DM1 myoblasts, 7 days, concentration of 20 μM and below (FIGS. 14A-D))
CCCN(CCC)S(=O)(=O)c1ccc(NS(=O)(=O)Cc2ccccc2)cc1 [Compound 15] | 85% | does not change | 15 µM | 6.8 µM | some toxicity | 0.22 |  | 
CCCc1c(C(=O)N(Cc2ccccc2)Cc2cccs2)cnn1-c1ccccc1 [Compound 32] | 30% |  | 5 µM | 2.5 µM | little toxicity |  | cytostatic effect | little cytotoxicity
